What was measured:
Format in all cases: cell-based
[1] = molecular target: T1, CaV3.2 (Homo sapiens, UniProt O95180); test: High-throughput CaV3.2/Kir2.3 T-type FLIPR fluorescent assay; conditions: Table 5; Fluo-4 FLIPR; closed or inactivated state not stated
T1 construct: expressed in transfected cells; host or cells: unnamed doxycycline-inducible cell line
Outline: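 Doxycycline-induced cells loaded with Fluo-4, preincubated 20 min at 29°C with compound in 2 mM KCl (closed-state) or 7.6 mM KCl (inactivated-state) buffer, pH 7.4. Calcium entry triggered by 12 mM or 14.5 mM KCl respectively; fluorescence read 3 min by FLIPR, IC50 from logistic fit.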

[2] = molecular target: T2, CaV2.2 (Homo sapiens, UniProt Q00975); test: High-throughput CaV2.2/Kir2.3 FLIPR fluorescent assay; conditions: Table 5; Fluo-4 FLIPR; closed or inactivated state not stated; read-out: FLIPR data CaV2.2
T2 construct: expressed in transfected cells; host or cells: unnamed doxycycline-inducible cell line
Outline: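 Doxycycline-induced cells moved to 29 °C on assay day and were loaded with 4.4 μM Fluo-4. They were held in 2 mM KCl (closed state) or 12.5 mM KCl (inactivated state) buffer, pH 7.4, then depolarized with 130 mM KCl. Fluorescence was read 3 min on FLIPR, and IC50 was obtained from logistic fits.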

[3] = molecular target: T3, CaV3.1 (Homo sapiens, UniProt O43497); test: High-throughput CaV3.1 T-type FLIPR fluorescent assay; conditions: Table 5; Fluo-4 FLIPR
T3 construct: expressed in transfected cells; host or cells: unnamed doxycycline-inducible cell line
T3 sequence (O43497 whole entry): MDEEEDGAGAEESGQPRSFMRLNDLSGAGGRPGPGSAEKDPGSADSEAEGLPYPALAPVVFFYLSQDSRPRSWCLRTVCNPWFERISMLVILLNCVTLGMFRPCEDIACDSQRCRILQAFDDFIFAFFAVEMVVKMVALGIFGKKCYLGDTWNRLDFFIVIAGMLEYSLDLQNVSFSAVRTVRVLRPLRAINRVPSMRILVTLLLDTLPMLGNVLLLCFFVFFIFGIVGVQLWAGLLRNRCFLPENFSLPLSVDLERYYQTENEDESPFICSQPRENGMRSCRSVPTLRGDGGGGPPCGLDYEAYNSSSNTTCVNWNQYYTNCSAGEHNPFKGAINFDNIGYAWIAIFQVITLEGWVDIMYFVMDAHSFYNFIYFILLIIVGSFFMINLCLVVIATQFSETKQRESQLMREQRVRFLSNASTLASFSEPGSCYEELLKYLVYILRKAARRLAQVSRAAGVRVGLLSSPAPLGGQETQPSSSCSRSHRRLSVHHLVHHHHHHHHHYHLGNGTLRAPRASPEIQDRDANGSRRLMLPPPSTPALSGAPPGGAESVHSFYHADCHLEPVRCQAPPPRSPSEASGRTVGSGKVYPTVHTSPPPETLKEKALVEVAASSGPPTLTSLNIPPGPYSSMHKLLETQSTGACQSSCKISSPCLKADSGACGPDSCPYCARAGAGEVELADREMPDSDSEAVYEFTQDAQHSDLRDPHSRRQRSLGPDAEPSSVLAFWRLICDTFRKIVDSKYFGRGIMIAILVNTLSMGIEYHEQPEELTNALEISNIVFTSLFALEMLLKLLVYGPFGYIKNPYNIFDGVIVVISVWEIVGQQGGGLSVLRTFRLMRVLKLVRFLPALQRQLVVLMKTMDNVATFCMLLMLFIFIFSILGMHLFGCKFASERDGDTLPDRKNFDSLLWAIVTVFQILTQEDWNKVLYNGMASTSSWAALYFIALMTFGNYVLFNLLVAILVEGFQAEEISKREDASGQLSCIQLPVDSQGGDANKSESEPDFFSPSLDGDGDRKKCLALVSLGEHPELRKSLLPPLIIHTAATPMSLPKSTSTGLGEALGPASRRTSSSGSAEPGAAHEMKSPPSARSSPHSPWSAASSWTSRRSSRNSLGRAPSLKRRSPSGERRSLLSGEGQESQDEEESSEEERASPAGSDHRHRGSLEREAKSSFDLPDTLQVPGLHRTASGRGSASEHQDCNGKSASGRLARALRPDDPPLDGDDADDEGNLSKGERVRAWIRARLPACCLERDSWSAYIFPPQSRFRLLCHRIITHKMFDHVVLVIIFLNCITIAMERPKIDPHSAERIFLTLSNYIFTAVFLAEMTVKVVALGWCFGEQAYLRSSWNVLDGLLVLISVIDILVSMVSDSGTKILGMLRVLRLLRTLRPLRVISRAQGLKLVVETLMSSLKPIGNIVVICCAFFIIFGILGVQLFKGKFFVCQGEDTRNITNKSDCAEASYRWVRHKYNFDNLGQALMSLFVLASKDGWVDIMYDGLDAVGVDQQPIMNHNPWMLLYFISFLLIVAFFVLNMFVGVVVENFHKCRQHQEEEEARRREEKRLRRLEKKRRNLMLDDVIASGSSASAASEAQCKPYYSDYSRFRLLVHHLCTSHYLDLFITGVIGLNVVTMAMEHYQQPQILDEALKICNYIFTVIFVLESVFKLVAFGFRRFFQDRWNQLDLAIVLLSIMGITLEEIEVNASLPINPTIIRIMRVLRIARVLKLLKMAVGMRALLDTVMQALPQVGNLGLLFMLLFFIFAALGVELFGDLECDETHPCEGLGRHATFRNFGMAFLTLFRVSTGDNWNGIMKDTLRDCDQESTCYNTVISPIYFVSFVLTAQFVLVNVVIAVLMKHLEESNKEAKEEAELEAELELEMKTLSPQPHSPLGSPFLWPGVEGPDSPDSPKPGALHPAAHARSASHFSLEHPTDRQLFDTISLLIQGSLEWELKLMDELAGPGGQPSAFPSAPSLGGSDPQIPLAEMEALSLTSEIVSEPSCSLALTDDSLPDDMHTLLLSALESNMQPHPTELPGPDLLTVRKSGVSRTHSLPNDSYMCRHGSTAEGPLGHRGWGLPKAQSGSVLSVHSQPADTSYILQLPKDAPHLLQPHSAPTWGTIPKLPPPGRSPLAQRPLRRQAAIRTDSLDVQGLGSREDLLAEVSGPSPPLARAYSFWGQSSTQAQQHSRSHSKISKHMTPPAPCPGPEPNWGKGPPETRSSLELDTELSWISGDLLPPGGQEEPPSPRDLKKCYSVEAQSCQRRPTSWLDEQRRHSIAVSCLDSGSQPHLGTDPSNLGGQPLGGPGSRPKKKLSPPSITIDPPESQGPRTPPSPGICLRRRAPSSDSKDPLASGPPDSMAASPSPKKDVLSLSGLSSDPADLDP
Outline: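 Doxycycline-induced CaV3.1 cells were loaded with Fluo-4 at 29 °C and pre-incubated with compound for 20 min at 29 °C in low-Ca2+ buffer (0.001 mM CaCl2, pH 7.2). Calcium entry was triggered by buffer containing 6 mM CaCl2, and Fluo-4 fluorescence was recorded on FLIPR for 3 min. IC50 came from logistic fits.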

T1 sequence (O95180 whole entry): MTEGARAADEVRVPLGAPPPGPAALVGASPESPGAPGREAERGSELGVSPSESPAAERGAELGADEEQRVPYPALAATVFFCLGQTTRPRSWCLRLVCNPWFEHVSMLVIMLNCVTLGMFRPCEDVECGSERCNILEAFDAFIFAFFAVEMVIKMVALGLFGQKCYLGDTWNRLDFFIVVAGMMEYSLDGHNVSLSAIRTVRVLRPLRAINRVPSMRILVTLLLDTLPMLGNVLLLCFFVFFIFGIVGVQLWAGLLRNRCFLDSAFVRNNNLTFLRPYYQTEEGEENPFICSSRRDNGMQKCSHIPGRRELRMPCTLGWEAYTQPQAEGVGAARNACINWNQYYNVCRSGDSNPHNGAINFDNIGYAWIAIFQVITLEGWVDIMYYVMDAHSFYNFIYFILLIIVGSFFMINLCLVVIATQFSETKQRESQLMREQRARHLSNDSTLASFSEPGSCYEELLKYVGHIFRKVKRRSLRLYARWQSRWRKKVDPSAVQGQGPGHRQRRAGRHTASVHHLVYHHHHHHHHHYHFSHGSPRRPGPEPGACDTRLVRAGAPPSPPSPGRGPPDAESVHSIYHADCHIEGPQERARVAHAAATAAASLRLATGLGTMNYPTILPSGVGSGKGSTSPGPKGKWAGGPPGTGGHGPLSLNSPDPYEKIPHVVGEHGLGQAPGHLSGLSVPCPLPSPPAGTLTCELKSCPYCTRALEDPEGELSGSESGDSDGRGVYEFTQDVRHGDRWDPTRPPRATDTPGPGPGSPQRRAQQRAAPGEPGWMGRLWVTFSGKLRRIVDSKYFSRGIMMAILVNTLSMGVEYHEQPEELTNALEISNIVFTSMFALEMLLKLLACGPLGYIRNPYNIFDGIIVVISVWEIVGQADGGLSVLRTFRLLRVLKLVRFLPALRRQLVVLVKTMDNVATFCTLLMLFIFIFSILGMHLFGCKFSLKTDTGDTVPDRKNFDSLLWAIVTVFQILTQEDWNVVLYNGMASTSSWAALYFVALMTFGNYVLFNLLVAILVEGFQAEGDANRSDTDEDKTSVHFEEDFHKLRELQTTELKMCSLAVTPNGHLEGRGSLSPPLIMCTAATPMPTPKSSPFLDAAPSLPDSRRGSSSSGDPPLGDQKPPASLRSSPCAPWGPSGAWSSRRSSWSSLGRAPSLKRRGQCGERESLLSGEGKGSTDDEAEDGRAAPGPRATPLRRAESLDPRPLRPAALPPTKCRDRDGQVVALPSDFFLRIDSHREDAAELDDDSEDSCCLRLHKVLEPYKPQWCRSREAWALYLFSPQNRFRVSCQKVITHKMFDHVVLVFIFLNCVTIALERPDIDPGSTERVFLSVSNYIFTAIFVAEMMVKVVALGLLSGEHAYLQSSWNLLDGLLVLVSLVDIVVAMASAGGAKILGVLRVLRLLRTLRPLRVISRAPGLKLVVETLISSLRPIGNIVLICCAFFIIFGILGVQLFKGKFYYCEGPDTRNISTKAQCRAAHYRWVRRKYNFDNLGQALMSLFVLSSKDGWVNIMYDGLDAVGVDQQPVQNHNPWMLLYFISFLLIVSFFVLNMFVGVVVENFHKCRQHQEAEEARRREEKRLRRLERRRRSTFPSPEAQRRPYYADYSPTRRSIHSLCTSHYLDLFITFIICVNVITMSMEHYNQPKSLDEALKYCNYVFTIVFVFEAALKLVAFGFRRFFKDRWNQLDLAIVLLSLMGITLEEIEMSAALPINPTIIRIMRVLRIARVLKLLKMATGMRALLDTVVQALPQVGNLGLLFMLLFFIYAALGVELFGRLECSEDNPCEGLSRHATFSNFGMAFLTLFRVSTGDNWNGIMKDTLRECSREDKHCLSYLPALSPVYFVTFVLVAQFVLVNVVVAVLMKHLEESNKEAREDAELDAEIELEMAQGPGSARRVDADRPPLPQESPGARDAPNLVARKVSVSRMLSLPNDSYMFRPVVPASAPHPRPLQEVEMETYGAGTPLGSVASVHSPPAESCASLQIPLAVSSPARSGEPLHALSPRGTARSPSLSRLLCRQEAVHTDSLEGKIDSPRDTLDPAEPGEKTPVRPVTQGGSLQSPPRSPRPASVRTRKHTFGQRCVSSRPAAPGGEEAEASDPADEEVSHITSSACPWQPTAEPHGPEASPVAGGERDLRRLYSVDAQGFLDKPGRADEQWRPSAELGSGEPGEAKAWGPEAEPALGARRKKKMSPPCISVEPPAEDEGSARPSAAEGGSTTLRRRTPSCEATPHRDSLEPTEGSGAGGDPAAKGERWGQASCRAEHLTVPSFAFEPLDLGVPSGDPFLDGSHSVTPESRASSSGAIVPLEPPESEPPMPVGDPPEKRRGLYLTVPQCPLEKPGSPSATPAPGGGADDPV

Row | Compound | IC50 [1] [nM] | IC50 [2] [nM] | IC50 [3] [nM]
1 | CC(C)(CCNC(=O)C(C)(C)S(=O)(=O)c1cccc(C(F)(F)F)c1)S(=O)(=O)c1cccc(C(F)(F)F)c1 [Compound 150, 2-methyl-N-(3-methyl-3-((3-(trifluoromethyl)phenyl)sulfonyl)butyl)-2-((3-(trifluoromethyl)phenyl)sulfonyl)propanamide] | 1020 | 250 | 1770
2 | CC(C)(C(=O)NCc1cccc(S(=O)(=O)c2cccc(C(F)(F)F)c2)c1)S(=O)(=O)c1cccc(C(F)(F)F)c1 [Compound 226, 2-methyl-2-((3-(trifluoromethyl)phenyl)sulfonyl)-N-(3-((3-(trifluoromethyl)phenyl)sulfonyl)benzyl)propanamide] | 1200 | 110 | 1410
3 | CC(C)(C(=O)NCc1ccccc1S(=O)(=O)c1cccc(C(F)(F)F)c1)S(=O)(=O)c1cccc(C(F)(F)F)c1 [Compound 227, 2-methyl-2-((3-(trifluoromethyl)phenyl)sulfonyl)-N-(2-((3-(trifluoromethyl)phenyl)sulfonyl)benzyl)propanamide] | 350 | 400 | 630

The remaining compounds from weak to strong by IC50 [1], led by results:

Row | IC50 [1] [nM] | IC50 [2] [nM] | IC50 [3] [nM] | Compound
4 | 4310 | 420 | 5050 | CC(C)(CCN1CCn2nc(C(F)(F)F)cc2C1=O)S(=O)(=O)c1cccc(C(F)(F)F)c1 [Compound 187, 5-(3-methyl-3-((3-(trifluoromethyl)phenyl)sulfonyl)butyl)-2-(trifluoromethyl)-6,7-dihydropyrazolo[1,5-a]pyrazin-4(5H)-one]
5 | 3210 | 740 | 5640 | CC(C)(CCNC(=O)[C@@H]1C[C@@H](C2CCCCC2)CN1)S(=O)(=O)c1cccc(C(F)(F)F)c1 [Compound 218, (2S,4S)-4-cyclohexyl-N-(3-methyl-3-((3-(trifluoromethyl)phenyl)sulfonyl)butyl)pyrrolidine-2-carboxamide]
6 | 630 | 100 | 1410 | CC(C)(C(=O)NCc1ccc(S(=O)(=O)c2cccc(C(F)(F)F)c2)cc1)S(=O)(=O)c1cccc(C(F)(F)F)c1 [Compound 225, 2-methyl-2-((3-(trifluoromethyl)phenyl)sulfonyl)-N-(4-((3-(trifluoromethyl)phenyl)sulfonyl)benzyl)propanamide]

From patent publication US20140113898A1, “BISARYLSULFONE AND DIALKYLARYLSULFONE COMPOUNDS AS CALCIUM CHANNEL BLOCKERS” (Zalicus Pharmaceuticals Ltd., priority 2010, published 2014)
